Measured values as given in ChEMBL document CHEMBL1201862, “PubChem BioAssay data set” (2004).
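Briefly, cells in 96-well plates were exposed to five compound concentrations for 48 h, and endpoints were estimated by linear interpolation. At the GI50, growth is halved.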 The source made the active and inactive calls. Rule as the data show it: active = GI50 up to about 1.1 µM and inactive = higher.

Experiments:
Assay in all cases: NCI anticancer screen, dose series, 48 h
Malme-3M = system: Malme-3M
HOP-62 = system: HOP-62
T47D = system: T47D
NCI-H23 = system: NCI-H23
MCF7 = system: MCF7
M14 = system: M14
DU-145 = system: DU-145
Hs-578T = system: Hs-578T
UO-31 = system: UO-31
NCI-H226 = system: NCI-H226
SF-268 = system: SF-268
SW-620 = system: SW-620
A498 = system: A498
HT-29 = system: HT-29
HOP-92 = system: HOP-92
OVCAR-3 = system: OVCAR-3
MDA-MB-435 = system: MDA-MB-435
MDA-N = system: MDA-N
NCI-H522 = system: NCI-H522

SMILES | GI50 (Malme-3M) | GI50 (HOP-62) | GI50 (T47D) | GI50 (NCI-H23) | GI50 (MCF7) | GI50 (M14) | GI50 (DU-145) | GI50 (Hs-578T) | GI50 (UO-31) | GI50 (NCI-H226) | GI50 (SF-268) | GI50 (SW-620) | GI50 (A498) | GI50 (HT-29) | GI50 (HOP-92) | GI50 (OVCAR-3) | GI50 (MDA-MB-435) | GI50 (MDA-N) | GI50 (NCI-H522)
Nn1c(=O)[nH]c2ncn(Cc3ccccc3)c2c1=O | > 100 µM (inactive) | > 100 µM (inactive) | > 100 µM (inactive) | > 100 µM (inactive) | > 100 µM (inactive) | > 100 µM (inactive) | > 100 µM (inactive) | > 100 µM (inactive) | > 100 µM (inactive) | > 100 µM (inactive) | > 100 µM (inactive) | > 100 µM (inactive) | > 100 µM (inactive) | > 100 µM (inactive) | > 100 µM (inactive) | > 100 µM (inactive) | > 100 µM (inactive) | > 100 µM (inactive) | > 100 µM (inactive)
CC(C)(C)C(=O)Nc1cccc(-c2ccc[nH]2)n1 | > 100 µM (inactive) | > 100 µM (inactive) | > 57.5 µM (inactive) | > 100 µM (inactive) | > 100 µM (inactive) | > 100 µM (inactive) | > 100 µM (inactive) | 22.7 µM (inactive) | > 96.8 µM (inactive) | > 100 µM (inactive) | > 100 µM (inactive) | > 100 µM (inactive) | > 100 µM (inactive) | > 100 µM (inactive) | > 100 µM (inactive) | > 83.8 µM (inactive) | > 44.9 µM (inactive) | > 100 µM (inactive) | > 75 µM (inactive)
COc1ccc(/C=C2\C[C@H]3[C@@H]4CCC5=CC(=O)CC[C@]5(C)[C@H]4CC[C@]3(C)C2=O)cc1OC | 8.65 µM (inactive) | 0.332 µM (active) | 3.56 µM (inactive) | 17.6 µM (inactive) | 4.67 µM (inactive) | 14.9 µM (inactive) | 41.2 µM (inactive) | 45.8 µM (inactive) | 2.42 µM (inactive) | 11.1 µM (inactive) | > 100 µM (inactive) | 21.1 µM (inactive) | 3.25 µM (inactive) | 6.87 µM (inactive) | 5.27 µM (inactive) | 17.5 µM (inactive) | 5.48 µM (inactive) | 5.94 µM (inactive) | 2.74 µM (inactive)
CCOC(=O)/C=C(/OCC)[C@@H]1C(C(=O)c2ccc(Cl)cc2)[C@@H]1/C(=C\C(=O)OCC)OCC (stereo not given in full) | 16.8 µM (inactive) | 14.3 µM (inactive) | 6.01 µM (inactive) | 11.7 µM (inactive) | 11.2 µM (inactive) | 14.5 µM (inactive) | 47.1 µM (inactive) | 12.9 µM (inactive) | 4.53 µM (inactive) | 6.27 µM (inactive) | 45 µM (inactive) | 12.6 µM (inactive) | 8.89 µM (inactive) | 7.53 µM (inactive) | 2.47 µM (inactive) | 7.57 µM (inactive) | 6.58 µM (inactive) | 17.5 µM (inactive) | 3.62 µM (inactive)
C[N+]1(CCC(=O)c2ccccc2)CCC2CCC(C2)C1 (stereo not given) | > 100 µM (inactive) | > 100 µM (inactive) | > 100 µM (inactive) | > 100 µM (inactive) | > 100 µM (inactive) | > 100 µM (inactive) | > 100 µM (inactive) | > 100 µM (inactive) | > 100 µM (inactive) | > 100 µM (inactive) | > 100 µM (inactive) | > 100 µM (inactive) | > 100 µM (inactive) | > 100 µM (inactive) | > 100 µM (inactive) | > 100 µM (inactive) | > 100 µM (inactive) | > 100 µM (inactive) | > 100 µM (inactive)
COc1cccc([C@H]2C/C(=N\NC(=O)C(=O)N[C@@H](C)c3ccccc3)c3ccccc3N2)c1 | > 10 µM (inactive) | 4.51 µM (inactive) | > 10 µM (inactive) | > 10 µM (inactive) | 9.38 µM (inactive) | 0.0249 µM (active) | 0.0258 µM (active) | 0.0237 µM (active) | 0.0378 µM (active) | 0.0314 µM (active) | 7.05 µM (inactive) | 0.0339 µM (active) | 0.0417 µM (active) | > 10 µM (inactive) | 7.5 µM (inactive) | 0.0181 µM (active) | < 0.01 µM (active) | < 0.01 µM (active) | 9.42 µM (inactive)
CCOC(=O)/C=C(\C(=O)OCC)n1cc(Cl)c(=O)n(CC(=O)OCC)c1=O | 1.57 µM (inactive) | 18 µM (inactive) | 1.66 µM (inactive) | 14.7 µM (inactive) | 2.62 µM (inactive) | 3.4 µM (inactive) | 17 µM (inactive) | 23.7 µM (inactive) | 1.87 µM (inactive) | 16.4 µM (inactive) | 17.7 µM (inactive) | 1.91 µM (inactive) | 19.2 µM (inactive) | 16.5 µM (inactive) | 1.85 µM (inactive) | 2.82 µM (inactive) | 16.9 µM (inactive) | 11.3 µM (inactive) | 0.78 µM (active)
COc1cc(S(=O)(=O)Nc2nc(-c3ccc(N4C(=O)CSC4c4cccs4)cc3)cs2)ccc1Cl (stereo not given) | > 100 µM (inactive) | > 100 µM (inactive) | 36.8 µM (inactive) | 33.2 µM (inactive) | 43.5 µM (inactive) | > 100 µM (inactive) | > 100 µM (inactive) | 97.1 µM (inactive) | 22.6 µM (inactive) | > 100 µM (inactive) | 37.6 µM (inactive) | 40.8 µM (inactive) | > 100 µM (inactive) | > 100 µM (inactive) | 36.6 µM (inactive) | 33.7 µM (inactive) | > 100 µM (inactive) | 43.4 µM (inactive) | 30.9 µM (inactive)
O=C1NC(=S)N(c2cccc3ccccc23)C(=O)/C1=C/c1c[nH]c2ccccc12 | 2.23 µM (inactive) | 2.83 µM (inactive) | 3.89 µM (inactive) | 1.81 µM (inactive) | 2.54 µM (inactive) | 1.84 µM (inactive) | 1.8 µM (inactive) | 3.52 µM (inactive) | 2.15 µM (inactive) | 2.42 µM (inactive) | 2.64 µM (inactive) | 2.25 µM (inactive) | 2.05 µM (inactive) | 2.17 µM (inactive) | 2.13 µM (inactive) | 3.38 µM (inactive) | 2.34 µM (inactive) | 2.1 µM (inactive) | 2.78 µM (inactive)
COc1ccc(C(C)NNC(=O)c2cc[n+]([BH2-]C#N)cc2)cc1OC (stereo not given) | > 100 µM (inactive) | > 100 µM (inactive) | > 100 µM (inactive) | > 100 µM (inactive) | > 100 µM (inactive) | > 100 µM (inactive) | > 100 µM (inactive) | > 100 µM (inactive) | > 100 µM (inactive) | > 100 µM (inactive) | > 100 µM (inactive) | > 100 µM (inactive) | > 100 µM (inactive) | > 100 µM (inactive) | > 100 µM (inactive) | > 100 µM (inactive) | > 100 µM (inactive) | > 100 µM (inactive) | > 100 µM (inactive)
